Measurements from US20160250354A1, “METHODS AND COMPOSITIONS FOR DELIVERY OF ACTIVE AGENTS” (TEKMIRA PHARMACEUTICALS CORPORATION, priority 2010, published 2016).

System: Factor VII
Test: in vivo rodent Factor VII silencing model (serum/plasma FVII after i.v. FVII siRNA lipid formulation)
Parameters: species or system C57BL/6 mice
Procedure: C57BL/6 mice (Charles River Labs, MA) receive either saline or siRNA in desired formulations via tail vein injection at a volume of 0.01 mL/g. At various time points post-administration, animals are anesthetized by isofluorane inhalation and blood is collected into serum separator tubes by retro orbital bleed. Serum levels of Factor VII protein are determined in samples using a chromogenic assay (Coaset Factor VII, DiaPharma Group, OH or Biophen FVII, Aniara Corporation, OH) according to manufacturer protocols. A standard curve is generated using serum collected from saline treated animals. In experiments where liver mRNA levels were assessed, at various time points post-administration, animals are sacrificed and livers are harvested and snap frozen in liquid nitrogen. Frozen liver tissue is ground into powder. Tissue lysates were prepared and liver mRNA levels of Factor VII and apoB are determined using a branched DNA assay (QuantiGene Assay, Panomics, CA).
Factor VII (FVII), a prominent protein in the coagulation cascade, is synthesized in the liver (hepatocytes) and secreted into the plasma. FVII levels in plasma can be determined by a simple, plate-based colorimetric assay. As such, FVII represents a convenient model for determining sirna-mediated downregulation of hepatocyte-derived proteins, as well as monitoring plasma concentrations and tissue distribution of the nucleic acid lipid particles and siRNA.
The cationic lipids shown above are used to formulate liposomes containing the AD-1661duplex using an in-line mixing method, as described in U.S. provisional patent application 61/228,373, which is incorporated by reference in its entirety. Lipid particles are formulated using the following molar ratio: 50% Cationic lipid/10% distearoylphosphatidylcholine (DSPC)/38.5% Cholesterol/1.5% PEG-DMG (1-(monomethoxy-polyethyleneglycol)-2,3-dimyristoylglycerol, with an average PEG molecular weight of 2000).
C57BL/6 mice (Charles River Labs, MA) receive either saline or formulated siRNA via tail vein injection. At various time points after administration, serum samples are collected by retroorbital bleed. Serum levels of Factor VII protein are determined in samples using a chromogenic assay (Biophen FVII, Aniara Corporation, OH). To determine liver mRNA levels of Factor VII, animals are sacrificed and livers were harvested and snap frozen in liquid nitrogen. Tissue lysates are prepared from the frozen tissues and liver mRNA levels of Factor VII are quantified using a branched DNA assay (QuantiGene Assay, Panomics, CA).
FVII activity is evaluated in FVII siRNA-treated animals at 48 hours after intravenous (bolus) injection in C57BL/6 mice. FVII is measured using a commercially available kit for determining protein levels in serum or tissue, following the manufacturer's instructions at a microplate scale. FVII reduction is determined against untreated control mice, and the results are expressed as % Residual FVII. Two dose levels (0.05 and 0.005 mg/kg FVII siRNA) are used in the screen of each novel liposome composition.
Cationic lipid containing particles are made using the preformed vesicle method. Cationic lipid, DSPC, cholesterol and PEG-lipid were solubilized in ethanol at a molar ratio of 40/10/40/10, respectively. The lipid mixture is added to an aqueous buffer (50 mM citrate, pH 4) with mixing to a final ethanol and lipid concentration of 30% (vol/vol) and 6.1 mg/mL respectively and allowed to equilibrate at room temperature for 2 min before extrusion. The hydrated lipids are extruded through two stacked 80 nm pore-sized filters (Nuclepore) at 22° C. using a Lipex Extruder (Northern Lipids, Vancouver, BC) until a vesicle diameter of 70-90 nm, as determined by Nicomp analysis, is obtained. This generally required 1-3 passes.
The FVII siRNA (solubilised in a 50 mM citrate, pH 4 aqueous solution containing 30% ethanol) is added to the vesicles, pre-equilibrated to 35° C., at a rate of ˜5 mL/min with mixing. […]

[1] = Table 10, dose resulting in a 50% reduction in plasma FVII levels vs control animals, lipid formulation with FVII siRNA, i.v. tail vein, C57Bl/6 mice

Row | Structure (SMILES) | ED50 [1] [mg/kg] | ED50 (in-line mixing formulation compound 1/DSPC/Chol/(C14)PEG-DMG 50/10/38.5/1.5, FIG. 1) [mg/kg] | ED50 (pre-formed vesicle (PFV) formulation compound 1/DSPC/Chol/(C14)PEG-DMG 40/10/40/10, FIG. 2) [mg/kg]
1 | CCCCCC1CC1CC1CC1CCCCCCCCC(CCCCCCCCC1CC1CC1CC1CCCCC)OC(=O)CCCN(C)C (stereo not drawn) [Compound 1, 1,17-bis(2-((2-pentylcyclopropyl)methyl)cyclopropyl)heptadecan-9-yl 4-(dimethylamino)butanoate] | 0.12 | 0.01 | 0.12
2 | CCCCC/C=C\C/C=C\CCCCCCCCC(CCCCCCCC/C=C\C/C=C\CCCCC)SSCCCCN(C)C [Compound 2] | 0.11 |  | 
3 | CCCCC/C=C\C/C=C\CCCCCCCCC(CCCCCCCC/C=C\C/C=C\CCCCC)ON=CCCCN(C)C [Compound 3] | 0.06 |  | 
4 | CCCCC/C=C\C/C=C\CCCCCCC[C@H]1OC2(CCN(C)CC2)O[C@@H]1CCCCCCC/C=C\C/C=C\CCCCC [Compound 4] | 0.07 |  | 
